Test results as given in patent US20150045424A1, “COMPOSITION USEFUL FOR THE TREATMENT OF TYPE 2 DIABETES” (SIGMA-TAU INDUSTRIE FARMACEUTICHE RIUNITE S.P.A., priority 2007, published 2015).

How the values were obtained:
Assay type in all cases: in vivo, mouse
[1] = system: C57BL/KsJ db/db mice; assay: Blood glucose levels of db/db mice (feeding, post-absorption, fasting); conditions: n=6
Excerpt: A much used genetically diabetic mouse model is the C57BL/KsJ db/db mouse.
The genetic basis of this model is a defect in the leptin receptor gene which gives rise to leptin resistance and leads to hyperphagia, obesity, hyperinsulinaemia and insulin resistance, with subsequent symptoms of insufficient insulin secretion and hyperglycaemia (Kodama et al., Diabetologia 37: 739-744, 1994; Chen et al, Cell 84: 491-495, 1996).
(§1) The C57BL/KsJ db/db mice used in the experiments were supplied by Jackson Lab (via Ch. River). After 10 days of acclimatisation in standard conditions (22±2 [deg.]C.; 55±15% humidity; 15-20 air changes/hour; 12 hour light-darkness cycle with light from 7 a.m. to 7 p.m.) on a standard 4 RF21 diet (Mucedola), blood samples were taken in post-absorption conditions (fasting from 8.30 a.m. to 4.30 p.m.) from the caudal vein with the aid of a Jelco 22G catheter (Johnson and Johnson). Glucose, insulin, triglyceride, cholesterol, free fatty acid and urea levels were checked in the plasma to ensure well-matched distribution of the mice in the treatment groups.
At the start of treatment, the body weight of the animals was checked and monitoring of the animals' consumption of water and feed was scheduled.
(§2) The mice were divided into groups and treated orally twice daily with:
(§3) Simvastatin 100 mg/kg; L-carnitine inner salt 400 mg/kg; acetyl L-carnitine HCl 592 mg/kg (equimolar amount respect to L-carnitine); propionyl L-carnitine HCl 627 mg/kg (equimolar amount respect to L-carnitine); L-carnitine inner salt 400 mg/kg+Simvastatin 100 mg/kg; acetyl L-carnitine HCl 592 mg/kg+Simvastatin 100 mg/kg; propionyl L-carnitine HCl 627 mg/kg+Simvastatin 100 mg/kg.
(§4) In the course of the experiment, serum glucose levels, glucose tolerance (OGTT), a number of lipid status variables and weight gain were monitored.

[2] = system: C57BL/KsJ db/db mice; assay: Plasma triglyceride levels of db/db mice; conditions: oral twice daily for 25 days, post-absorption (fasting 9 a.m. to 4.30 p.m.), 7.5 hours after last treatment, n=6
Method: as §1, §2, §3, §4

[3] = system: C57BL/KsJ db/db mice; assay: Plasma fructosamine levels of db/db mice (indicator of protein glycosylation); conditions: oral twice daily for 25 days, post-absorption (fasting 9 a.m. to 4.30 p.m.), 7.5 hours after last treatment, n=6
Method: as §1, §2, §3, §4

[4] = system: C57BL/KsJ db/db mice; assay: Oral glucose tolerance test (OGTT) in db/db mice; conditions: oral twice daily for 18 days, OGTT glucose 3 g/kg, fasted 18 hours, 5 hours after last treatment, n=6
Method: as §1, §2, §3, §4

[5] = system: C57BL/KsJ db/db mice; assay: Plasma HDL-cholesterol levels of db/db mice; conditions: oral twice daily for 25 days, post-absorption (fasting 9 a.m. to 4.30 p.m.), 7.5 hours after last treatment, n=6
Method: as §1, §2, §3, §4

[6] = oral twice daily for 12 days, blood sample in feeding condition, approximately 15 hours after last treatment
[7] = oral twice daily for 12 days, post-absorption condition (fasting 9 a.m. to 5 p.m.), 8 hours after last treatment
[8] = oral twice daily for 18 days, fasted for 18 hours, 5 hours after last treatment

SMILES	Glucose Mean values [1, 6] [mg/dL]	Glucose Mean values [1, 7] [mg/dL]	Glucose Mean values [1, 8] [mg/dL]	Triglycerides Mean values [2] [mg/dL]	Fructosamine Mean values [3] [mM]	AUC Glucose (OGTT) Mean values [4] [u.a.]	HDL-cholesterol Mean values [5] [mg/dL]
CC(=O)O[C@H](CC(=O)[O-])C[N+](C)(C)C [Acetyl L-carnitine, acetyl L-carnitine]	468.0	416.1	332.0	85.6	0.85	49332.3	84.5
C[N+](C)(C)C[C@H](O)CC(=O)[O-] [L-carnitine]	470.0	416.5	324.8	85.7	0.81	50187.8	84.0
CCC(C)(C)C(=O)O[C@H]1C[C@@H](C)C=C2C=C[C@H](C)[C@H](CC[C@@H]3C[C@@H](O)CC(=O)O3)[C@H]21 [Simvastatin]	465.0	418.1	328.3	83.6	0.76	50973.3	74.5
CCC(=O)O[C@H](CC(=O)[O-])C[N+](C)(C)C [Propionyl L-carnitine, propionyl L-carnitine]	475.5	411	328.6	86.2	0.81	49005.5	80.9
